Columns and labels:
Assay in all cases: relative viability (nuclei count vs DMSO), 5 days (fraction); higher = more cells survive
A-427 = system: A-427
Procedure, shortened: (§1)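 Relative viability was taken as the ratio of nuclei in treated wells to nuclei in vehicle wells. Lung cancer cell lines in 1536-well plates received compounds by pin tool one day after seeding, either one drug alone or a fixed anchor-drug dose plus five library-drug doses (not always all listed) in √10 steps. Nuclei were counted on 4× images after 5 days of treatment, and values are medians of duplicate plates.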

NCI-H460 = system: NCI-H460
Procedure, shortened: as §1

NCI-H2009 = system: NCI-H2009
Procedure, shortened: as §1

NCI-H1792 = system: NCI-H1792
Procedure, shortened: as §1

NCI-H1395 = system: NCI-H1395
Procedure, shortened: as §1

NCI-H2228 = system: NCI-H2228
Procedure, shortened: as §1

CAL-12T = system: CAL-12T
Procedure, shortened: as §1

HARA = system: HARA
Procedure, shortened: as §1

COR-L 105 = system: COR-L 105
Procedure, shortened: as §1

NCI-H23 = system: NCI-H23
Procedure, shortened: as §1

NCI-H1437 = system: NCI-H1437
Procedure, shortened: as §1

LCLC-103H = system: LCLC-103H
Procedure, shortened: as §1

HOP-62 = system: HOP-62
Procedure, shortened: as §1

NCI-H1915 = system: NCI-H1915
Procedure, shortened: as §1

NCI-H727 = system: NCI-H727
Procedure, shortened: as §1

EMC-BAC-2 = system: EMC-BAC-2
Procedure, shortened: as §1

HCC-366 = system: HCC-366
Procedure, shortened: as §1

HCC-827 = system: HCC-827
Procedure, shortened: as §1

NCI-H1755 = system: NCI-H1755
Procedure, shortened: as §1

SK-LU-1 = system: SK-LU-1
Procedure, shortened: as §1

SW 1573 = system: SW 1573
Procedure, shortened: as §1

Work on `CCN(CC)CCCCNc1ncc2cc(-c3cc(OC)cc(OC)c3)c(NC(=O)NC(C)(C)C)nc2n1` + Cc1nc(NC(=O)N2CCC[C@H]2C(N)=O)sc1-c1ccnc(C(C)(C)C(F)(F)F)c1 [Alpelisib] (partner 2 µM) yielded a relative viability (A-427; first compound 0.01 µM) of 1.08, a relative viability (A-427; first compound 0.03162 µM) of 1.08 and a relative viability (A-427; first compound 0.1 µM) of 1.1. For the same molecule, the relative viability (A-427; first compound 0.3162 µM) was 1.1, the relative viability (A-427; first compound 1 µM) was 0.903 and the relative viability (NCI-H460; first compound 0.01 µM) was 0.646. It also gave a relative viability (NCI-H460; first compound 0.03162 µM) of 0.58, a relative viability (NCI-H460; first compound 0.1 µM) of 0.82 and a relative viability (NCI-H460; first compound 0.3162 µM) of 0.463. For the same molecule, the relative viability (NCI-H460; first compound 1 µM) was 0.399, the relative viability (NCI-H2009; first compound 0.01 µM) was 1.15 and the relative viability (NCI-H2009; first compound 0.03162 µM) was 1.14. For the same molecule, the relative viability (NCI-H2009; first compound 0.1 µM) was 1.24, the relative viability (NCI-H2009; first compound 0.3162 µM) was 1.18 and the relative viability (NCI-H2009; first compound 1 µM) was 1.16. For the same molecule, the relative viability (NCI-H1792; first compound 0.01 µM) was 0.797, the relative viability (NCI-H1792; first compound 0.03162 µM) was 0.674 and the relative viability (NCI-H1792; first compound 0.1 µM) was 0.51. The relative viability (NCI-H1792; first compound 0.3162 µM) was 0.766, the relative viability (NCI-H1792; first compound 1 µM) was 0.563 and the relative viability (NCI-H1395; first compound 0.03162 µM) was 1.19. It also gave a relative viability (NCI-H1395; first compound 0.1 µM) of 1.07, a relative viability (NCI-H1395; first compound 0.3162 µM) of 0.802 and a relative viability (NCI-H1395; first compound 1 µM) of 0.637. The relative viability (NCI-H2228; first compound 0.01 µM) was 0.796, the relative viability (NCI-H2228; first compound 0.03162 µM) was 0.755 and the relative viability (NCI-H2228; first compound 0.1 µM) was 0.913. The relative viability (NCI-H2228; first compound 0.3162 µM) was 0.672, the relative viability (NCI-H2228; first compound 1 µM) was 0.469 and the relative viability (CAL-12T; first compound 0.01 µM) was 1.35. The relative viability (CAL-12T; first compound 0.03162 µM) was 1.24, the relative viability (CAL-12T; first compound 0.1 µM) was 1.14 and the relative viability (CAL-12T; first compound 0.3162 µM) was 1.49. For the same molecule, the relative viability (CAL-12T; first compound 1 µM) was 0.902, the relative viability (HARA; first compound 0.01 µM) was 1.06 and the relative viability (HARA; first compound 0.03162 µM) was 0.872. For the same molecule, the relative viability (HARA; first compound 0.1 µM) was 1.03, the relative viability (HARA; first compound 0.3162 µM) was 0.801 and the relative viability (HARA; first compound 1 µM) was 0.685. It also gave a relative viability (COR-L 105; first compound 0.01 µM) of 1, a relative viability (COR-L 105; first compound 0.03162 µM) of 0.981 and a relative viability (COR-L 105; first compound 0.1 µM) of 1.06. It also gave a relative viability (COR-L 105; first compound 0.3162 µM) of 1.01, a relative viability (COR-L 105; first compound 1 µM) of 0.917 and a relative viability (NCI-H23; first compound 0.01 µM) of 0.706. For the same molecule, the relative viability (NCI-H23; first compound 0.03162 µM) was 0.735, the relative viability (NCI-H23; first compound 0.1 µM) was 0.851 and the relative viability (NCI-H23; first compound 0.3162 µM) was 0.653. The relative viability (NCI-H23; first compound 1 µM) was 0.678, the relative viability (NCI-H1437; first compound 0.01 µM) was 1.23 and the relative viability (NCI-H1437; first compound 0.03162 µM) was 0.944. For the same molecule, the relative viability (NCI-H1437; first compound 0.1 µM) was 1, the relative viability (NCI-H1437; first compound 0.3162 µM) was 1.03 and the relative viability (NCI-H1437; first compound 1 µM) was 0.947. For the same molecule, the relative viability (LCLC-103H; first compound 0.01 µM) was 1.09, the relative viability (LCLC-103H; first compound 0.03162 µM) was 0.967 and the relative viability (LCLC-103H; first compound 0.1 µM) was 0.975. For the same molecule, the relative viability (LCLC-103H; first compound 0.3162 µM) was 1.01, the relative viability (LCLC-103H; first compound 1 µM) was 1.01 and the relative viability (HOP-62; first compound 0.01 µM) was 0.82. The relative viability (HOP-62; first compound 0.03162 µM) was 1.1, the relative viability (HOP-62; first compound 0.1 µM) was 0.89 and the relative viability (HOP-62; first compound 0.3162 µM) was 1.04. The relative viability (HOP-62; first compound 1 µM) was 0.726, the relative viability (NCI-H1915; first compound 0.01 µM) was 1.07 and the relative viability (NCI-H1915; first compound 0.03162 µM) was 1.15. The relative viability (NCI-H1915; first compound 0.1 µM) was 1.06, the relative viability (NCI-H1915; first compound 0.3162 µM) was 1.14 and the relative viability (NCI-H1915; first compound 1 µM) was 1.07. It also gave a relative viability (NCI-H727; first compound 0.01 µM) of 0.586, a relative viability (NCI-H727; first compound 0.03162 µM) of 0.449 and a relative viability (NCI-H727; first compound 0.1 µM) of 0.678. The relative viability (NCI-H727; first compound 0.3162 µM) was 0.579, the relative viability (NCI-H727; first compound 1 µM) was 0.543 and the relative viability (EMC-BAC-2; first compound 0.01 µM) was 0.731. It also gave a relative viability (EMC-BAC-2; first compound 0.03162 µM) of 0.798, a relative viability (EMC-BAC-2; first compound 0.1 µM) of 0.811 and a relative viability (EMC-BAC-2; first compound 0.3162 µM) of 0.804. For the same molecule, the relative viability (EMC-BAC-2; first compound 1 µM) was 0.688, the relative viability (HCC-366; first compound 0.01 µM) was 0.385 and the relative viability (HCC-366; first compound 0.03162 µM) was 0.326. The relative viability (HCC-366; first compound 0.1 µM) was 0.757, the relative viability (HCC-366; first compound 0.3162 µM) was 0.584 and the relative viability (HCC-366; first compound 1 µM) was 0.47. It also gave a relative viability (HCC-827; first compound 0.01 µM) of 0.968, a relative viability (HCC-827; first compound 0.03162 µM) of 0.967 and a relative viability (HCC-827; first compound 0.1 µM) of 1.02. It also gave a relative viability (HCC-827; first compound 0.3162 µM) of 1.16, a relative viability (HCC-827; first compound 1 µM) of 1.02 and a relative viability (NCI-H1755; first compound 0.01 µM) of 0.983. It also gave a relative viability (NCI-H1755; first compound 0.03162 µM) of 0.942, a relative viability (NCI-H1755; first compound 0.1 µM) of 0.983 and a relative viability (NCI-H1755; first compound 0.3162 µM) of 1.06. The relative viability (NCI-H1755; first compound 1 µM) was 0.927, the relative viability (SK-LU-1; first compound 0.01 µM) was 1.06 and the relative viability (SK-LU-1; first compound 0.03162 µM) was 1.08. For the same molecule, the relative viability (SK-LU-1; first compound 0.1 µM) was 1.18, the relative viability (SK-LU-1; first compound 0.3162 µM) was 1.21 and the relative viability (SK-LU-1; first compound 1 µM) was 0.65. It also gave a relative viability (SW 1573; first compound 0.01 µM) of 0.727, a relative viability (SW 1573; first compound 0.03162 µM) of 0.874 and a relative viability (SW 1573; first compound 0.1 µM) of 0.929. It also gave a relative viability (SW 1573; first compound 0.3162 µM) of 0.796 and a relative viability (SW 1573; first compound 1 µM) of 0.782.

Source: the supplement of paper PMC10307832
